# Laboratory results reported in patent US20090012103A1, “SUBSTITUTED HETEROCYCLIC COMPOUNDS” (priority 2007, published 2009).
# Biological target: wild-type human cardiac sodium channel, hNav1.5 (Homo sapiens, UniProt Q14524)
# Test: Late INa screening assay (late sodium current, PatchXpress whole cell patch clamp)
# Type: cell-based
# Conditions: for inhibition at 10 µM: compound at 10 μM, read-out: Late INa % blk
# Method: The late sodium current (Late INa) and peak sodium current (Peak INa) assays are performed on an automated electrophysiology platform, PatchXpress 7000A (MDS Analytical Technologies, Sunnyvale, Calif.), which uses the whole cell patch clamp technique to measure currents through the cell membrane of up to 16 cells at a time. The assay uses an HEK293 (human embryonic kidney) cell line heterologously expressing the wild-type human cardiac sodium channel, hNav1.5, purchased from Millipore (Billerica, Mass.). No beta subunits were coexpressed with the Na channel alpha subunit. […] Experiments are carried out at 24-27° C.
# For both the Late INa and Peak INa assays, series resistance compensation is set to 50% and whole-cell compensation is performed automatically. […] Currents through open sodium channels are automatically recorded and stored in the DataXpress2 database (MDS Analytical Technologies, Sunnyvale, Calif.). Analysis is performed using DataXpress2 analysis software and data are compiled in Excel.
# Compound stocks are routinely made in glass vials to 10 mM in dimethyl sulfoxide (DMSO). In some cases, when compounds are not soluble in DMSO, they are made in 100% ethanol. Stocks are sonicated as necessary. The extracellular solution for screening Late INa is composed of: 140 mM NaCl, 4 mM KCl, 1.8 mM CaCl2, 0.75 mM MgCl2, and 5 mM HEPES with pH adjusted to 7.4 using NaOH. The extracellular solution for screening Peak INa is composed of: 20 mM NaCl, 120 mM N-methyl-D glucamine, 4 mM KCl, 1.8 mM CaCl2, 0.75 mM MgCl2, and 5 mM HEPES with pH adjusted to 7.4 using HCl. The intracellular solution used to perfuse the inside of the cells for both the Late INa and Peak INa assays contains: 120 mM CsF, 20 mM CsCl, 5 mM EGTA, 5 mM HEPES and pH adjusted to 7.4 with CsOH. Compounds are diluted in extracellular solution to 10 μM in glass vials and then transferred to glass well plates before robotic addition to the cells. The 0 Na extracellular solution used at the end of each experiment for the Late INa and Peak INa assays to measure baseline current contains: 140 mM N-methyl-D-glucamine; 4 mM KCl; 1.8 mM CaCl2; 0.75 mM MgCl2; 5 mM HEPES and pH was adjusted to 7.4 with HCl.
# For the Late INa assay, sodium channels are activated every 10 seconds (0.1 Hz) by depolarizing the cell membrane to −20 mV for 250 milliseconds (ms) from a holding potential of −120 mV.
# All compounds are tested to determine their activity in blocking the late sodium current. Late INa current is generated by adding 10 μM Tefluthrin (pyrethroid) to the extracellular solution while recording Na currents. […] For some experiments, 50 nM ATX II (sea anemone toxin), another late INa activator, was used to generate the late component. […] Baseline current in the absence of Na^+ ions is measured at the end of each experiment (after two additions of 0 Na solution-see above) and is used to calculate the percent block by compound.
# Sequence of wild-type human cardiac sodium channel, hNav1.5 (Q14524 whole entry): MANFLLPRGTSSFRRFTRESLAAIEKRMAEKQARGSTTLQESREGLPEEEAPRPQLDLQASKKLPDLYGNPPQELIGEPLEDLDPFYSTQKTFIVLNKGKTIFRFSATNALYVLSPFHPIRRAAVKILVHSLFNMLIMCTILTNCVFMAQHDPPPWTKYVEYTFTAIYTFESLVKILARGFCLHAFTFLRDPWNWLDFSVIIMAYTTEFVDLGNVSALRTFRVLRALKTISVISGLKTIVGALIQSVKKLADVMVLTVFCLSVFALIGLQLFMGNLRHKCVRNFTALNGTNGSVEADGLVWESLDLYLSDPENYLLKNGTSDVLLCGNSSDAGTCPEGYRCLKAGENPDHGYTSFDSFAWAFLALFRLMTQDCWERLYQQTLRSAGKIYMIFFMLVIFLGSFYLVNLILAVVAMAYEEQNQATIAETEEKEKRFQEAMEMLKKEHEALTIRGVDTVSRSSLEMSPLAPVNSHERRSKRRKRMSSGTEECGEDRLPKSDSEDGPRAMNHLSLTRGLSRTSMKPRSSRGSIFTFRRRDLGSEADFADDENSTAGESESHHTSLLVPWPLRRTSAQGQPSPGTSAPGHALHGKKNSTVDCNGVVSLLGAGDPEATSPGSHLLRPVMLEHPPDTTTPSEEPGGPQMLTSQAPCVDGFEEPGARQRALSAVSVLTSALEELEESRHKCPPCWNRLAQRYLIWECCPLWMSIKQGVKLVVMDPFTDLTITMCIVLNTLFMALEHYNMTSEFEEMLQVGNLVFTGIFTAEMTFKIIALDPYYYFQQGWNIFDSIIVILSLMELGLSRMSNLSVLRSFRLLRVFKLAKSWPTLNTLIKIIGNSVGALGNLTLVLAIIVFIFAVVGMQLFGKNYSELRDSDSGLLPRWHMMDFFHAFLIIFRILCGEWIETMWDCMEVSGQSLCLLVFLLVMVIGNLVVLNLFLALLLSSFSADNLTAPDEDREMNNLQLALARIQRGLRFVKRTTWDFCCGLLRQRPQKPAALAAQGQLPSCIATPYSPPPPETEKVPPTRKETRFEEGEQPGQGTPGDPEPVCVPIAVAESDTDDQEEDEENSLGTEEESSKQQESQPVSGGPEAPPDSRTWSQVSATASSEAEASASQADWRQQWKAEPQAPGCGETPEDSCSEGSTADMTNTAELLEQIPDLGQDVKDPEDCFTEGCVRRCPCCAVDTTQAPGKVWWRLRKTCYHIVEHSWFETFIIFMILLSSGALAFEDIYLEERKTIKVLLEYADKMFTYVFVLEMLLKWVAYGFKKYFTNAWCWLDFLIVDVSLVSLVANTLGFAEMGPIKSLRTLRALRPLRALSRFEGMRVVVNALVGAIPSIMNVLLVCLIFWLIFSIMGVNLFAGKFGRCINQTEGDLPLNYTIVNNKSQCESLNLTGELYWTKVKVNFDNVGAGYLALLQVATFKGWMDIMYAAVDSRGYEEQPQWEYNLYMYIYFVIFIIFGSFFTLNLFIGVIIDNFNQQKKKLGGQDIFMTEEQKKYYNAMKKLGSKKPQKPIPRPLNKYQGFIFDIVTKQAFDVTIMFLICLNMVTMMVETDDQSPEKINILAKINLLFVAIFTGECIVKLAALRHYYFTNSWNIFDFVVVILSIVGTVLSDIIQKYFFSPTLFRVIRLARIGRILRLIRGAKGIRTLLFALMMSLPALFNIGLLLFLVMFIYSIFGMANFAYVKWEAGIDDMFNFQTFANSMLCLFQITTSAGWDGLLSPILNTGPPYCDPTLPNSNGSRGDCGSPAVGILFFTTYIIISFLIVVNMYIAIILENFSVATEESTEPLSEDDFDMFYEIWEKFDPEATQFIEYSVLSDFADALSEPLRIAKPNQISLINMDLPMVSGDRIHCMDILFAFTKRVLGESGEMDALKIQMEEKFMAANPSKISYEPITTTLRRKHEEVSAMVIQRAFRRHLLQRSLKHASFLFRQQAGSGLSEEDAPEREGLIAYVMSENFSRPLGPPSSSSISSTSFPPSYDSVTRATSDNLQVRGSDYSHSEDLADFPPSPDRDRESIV
SMILES,inhibition at 10 µM [%],effect on late sodium current (result in words)
"CCOC(=O)C1=C(C)NC2=C(C(=O)CCC2(C)C)C1c1ccc(Cl)s1 (centres unmarked) [PT-146, ethyl 4-(5-chlorothiophen-2-yl)-2,8,8-trimethyl-5-oxo-1,4,5,6,7,8-hexahydroquinoline-3-carboxylate]",31.2,
"CC1=C(C(=O)NCCc2ccccc2)C(c2cccc3ccccc23)n2nnnc2N1 (centres unmarked) [PT-310, 5-methyl-7-(naphthalen-1-yl)-N-phenethyl-4,7-dihydrotetrazolo[1,5-a]pyrimidine-6-carboxamide]",23.6,
"CCOC(=O)C1=C(C)NC2=C(C(=O)CC(C)(C)C2)C1c1cccc(C(=O)O)c1 (centres unmarked) [PT-132, 3-(3-(ethoxycarbonyl)-2,7,7-trimethyl-5-oxo-1,4,5,6,7,8-hexahydroquinolin-4-yl)benzoic acid]",-5.3,
"CC1=C(C(=O)OCc2ccccc2)C(c2ccccc2-c2cccc(N)c2)n2nnnc2N1 (centres unmarked) [PT-399, benzyl 7-(3′-aminobiphenyl-2-yl)-5-methyl-4,7-dihydrotetrazolo[1,5-a]pyrimidine-6-carboxylate]",66.2,
"CC1=C(C(=O)NNC(=O)Cc2ccccc2)C(c2cccc3ccccc23)C2=C(CCCC2=O)N1 (centres unmarked) [PT-266, 2-methyl-4-(naphthalen-1-yl)-5-oxo-N′-(2-phenylacetyl)-1,4,5,6,7,8-hexahydroquinoline-3-carbohydrazide]",8.8,
"CCOC(=O)C1=C(C)NC(C)=C(C(=O)OCC)C1c1ccc(N(C)C)cc1[N+](=O)[O-] [PT-437, diethyl 4-(4-(dimethylamino)-2-nitrophenyl)-2,6-dimethyl-1,4-dihydropyridine-3,5-dicarboxylate]",43.1,
"CCOC(=O)C1=C(C)Nc2nnnn2C1c1c(C)cccc1C (centres unmarked) [PT-487, ethyl 7-(2,6-dimethylphenyl)-5-methyl-4,7-dihydrotetrazolo[1,5-a]pyrimidine-6-carboxylate]",20.9,
"CC1=C(C(=O)OC(C)C)C(c2cc(-c3ccccc3)cs2)C2=C(CC(C)(C)CC2=O)N1 (centres unmarked) [PT-159, isopropyl 2,7,7-trimethyl-5-oxo-4-(4-phenylthiophen-2-yl)-1,4,5,6,7,8-hexahydroquinoline-3-carboxylate]",46.3,
"CCOC(=O)C1=C(C(C)=O)C(c2cccc3ccccc23)n2nnnc2N1 (centres unmarked) [PT-465, ethyl 6-acetyl-7-(naphthalen-1-yl)-4,7-dihydrotetrazolo[1,5-a]pyrimidine-5-carboxylate]",10.5,
"Cc1nn(-c2ccccc2)c2c1C(c1cccc3ccccc13)C1=C(COC1=O)N2 (centres unmarked) [PT-083, 3-methyl-4-(naphthalen-1-yl)-1-phenyl-7,8-dihydro-1H-furo[3,4-e]pyrazolo[3,4-b]pyridin-5(4H)-one]",30,
"CCOC(=O)C1=C(C)NC2=C(C(=O)CCC2)C1c1ccc(OC)c2ccc(OC)cc12 (centres unmarked) [PT-138, ethyl 4-(4,7-dimethoxynaphthalen-1-yl)-2-methyl-5-oxo-1,4,5,6,7,8-hexahydroquinoline-3-carboxylate]",34.1,
"CC1=C(C(=O)OCc2ccccc2)C(c2ccc(S(C)(=O)=O)cc2[N+](=O)[O-])n2nnnc2N1 (centres unmarked) [PT-353, benzyl 5-methyl-7-(4-(methylsulfonyl)-2-nitrophenyl)-4,7-dihydrotetrazolo[1,5-a]pyrimidine-6-carboxylate]",5.8,
"CC1=C(C(=O)OCc2cccc(C#N)c2)C(c2cccc3ccccc23)n2nnnc2N1 (centres unmarked) [PT-278, 3-cyanobenzyl 5-methyl-7-(naphthalen-1-yl)-4,7-dihydrotetrazolo[1,5-a]pyrimidine-6-carboxylate]",63.9,
"CC1=C(C(=O)OCc2ccccc2)C(c2ccc(C)c3ccccc23)n2nnnc2N1 (centres unmarked) [PT-031, benzyl 5-methyl-7-(4-methylnaphthalen-1-yl)-4,7-dihydrotetrazolo[1,5-a]pyrimidine-6-carboxylate]",28.6,
"CC1=C(C(=O)OC(c2ccc(F)cc2)c2ccc(F)cc2)C(c2cccc3ccccc23)n2nnnc2N1 (centres unmarked) [PT-007, bis(4-fluorophenyl)methyl 5-methyl-7-(naphthalen-1-yl)-4,7-dihydrotetrazolo[1,5-a]pyrimidine-6-carboxylate]",44,
"CCOC(=O)C1=C(C)NC2=C(C(=O)CCC2)C1c1ccccc1-c1ccc(C(N)=O)cc1 (centres unmarked) [PT-455, ethyl 4-(4′-carbamoylbiphenyl-2-yl)-2-methyl-5-oxo-1,4,5,6,7,8-hexahydroquinoline-3-carboxylate]",9,
"CCOC(=O)C1=C(C)NC2=C(C(=O)CCC2)C1c1c(OC)ccc2ccccc12 (centres unmarked) [PT-134, ethyl 4-(2-methoxynaphthalen-1-yl)-2-methyl-5-oxo-1,4,5,6,7,8-hexahydroquinoline-3-carboxylate]",15.5,
"CC1=C(C(=O)OCc2ccccc2)C(c2ccc(C(F)(F)F)cc2C(F)(F)F)n2nnnc2N1 (centres unmarked) [PT-384, benzyl 7-(2,4-bis(trifluoromethyl)phenyl)-5-methyl-4,7-dihydrotetrazolo[1,5-a]pyrimidine-6-carboxylate]",29.4,
"CC1=C(C(=O)N2CCN(c3ccccc3)CC2)C(c2ccsc2)C2=C(CCCC2=O)N1 (centres unmarked) [PT-166, 2-methyl-3-(4-phenylpiperazine-1-carbonyl)-4-(thiophen-3-yl)-4,6,7,8-tetrahydroquinolin-5(1H)-one]",,potentiated late sodium current
"CC1=C(c2nnc(-c3ccccc3)o2)C(c2cccc3ccccc23)n2nnnc2N1 (centres unmarked) [PT-203, 2-(5-methyl-7-(naphthalen-1-yl)-4,7-dihydrotetrazolo[1,5-a]pyrimidin-6-yl)-5-phenyl-1,3,4-oxadiazole]",10.9,
"CC1=C(C(=O)OCc2ccccc2)C(c2cccc3ccccc23)c2c(-c3cccs3)n[nH]c2N1 (centres unmarked) [PT-076, benzyl 6-methyl-4-(naphthalen-1-yl)-3-(thiophen-2-yl)-4,7-dihydro-1H-pyrazolo[3,4-b]pyridine-5-carboxylate]",-4.3,
"CC1=C(C(=O)N2CCC(c3ccccc3)CC2)C(c2ccc3ccccc3c2)C2=C(CCCC2=O)N1 (centres unmarked) [PT-169, 2-methyl-4-(naphthalen-2-yl)-3-(4-phenylpiperidine-1-carbonyl)-4,6,7,8-tetrahydroquinolin-5(1H)-one]",11.8,
"CCOC(=O)C1=C(C)Nc2nnnn2C1c1ccccc1Oc1cccc(C(=O)O)c1 (centres unmarked) [PT-272, 3-(2-(6-(ethoxycarbonyl)-5-methyl-4,7-dihydrotetrazolo[1,5-a]pyrimidin-7-yl)phenoxy)benzoic acid]",-4.9,
"CC1=C(C(=O)OCc2ccccc2)C(c2cccc(-c3ccccc3)c2)n2nnnc2N1 (centres unmarked) [PT-026, benzyl 7-(biphenyl-3-yl)-5-methyl-4,7-dihydrotetrazolo[1,5-a]pyrimidine-6-carboxylate]",10.3,
"CCOC(=O)C1=C(C)Nc2nnnn2C1c1cccc(Oc2ccc(C(=O)O)cc2)c1 (centres unmarked) [PT-295, 4-(3-(6-(ethoxycarbonyl)-5-methyl-4,7-dihydrotetrazolo[1,5-a]pyrimidin-7-yl)phenoxy)benzoic acid]",7,
"CCOC(=O)C1=C(C)Nc2ccnn2C1c1c(Br)sc2ccccc12 (centres unmarked) [PT-488, ethyl 7-(2-bromobenzo[b]thiophen-3-yl)-5-methyl-4,7-dihydropyrazolo[1,5-a]pyrimidine-6-carboxylate]",82.3,
"CC1=C(C(=O)OCc2ccccc2)C(c2cc(-c3ccsc3)cs2)n2nnnc2N1 (centres unmarked) [PT-398, benzyl 7-(3,3′-bithiophen-5-yl)-5-methyl-4,7-dihydrotetrazolo[1,5-a]pyrimidine-6-carboxylate]",18.3,
"CCOC(=O)C1=C(C)NC2=C(C(=O)CCC2)C1c1ccccc1-c1ccc(C(=O)O)cc1 (centres unmarked) [PT-250, 2′-(3-(ethoxycarbonyl)-2-methyl-5-oxo-1,4,5,6,7,8-hexahydroquinolin-4-yl)biphenyl-4-carboxylic acid]",7.6,
"CC1=C(C(=O)OC(C)(C)C)C(c2ccc3ccccc3c2)n2nnnc2N1 (centres unmarked) [PT-022, tert-butyl 5-methyl-7-(naphthalen-2-yl)-4,7-dihydrotetrazolo[1,5-a]pyrimidine-6-carboxylate]",26,
